What all share (format): cell-based, human
Assay [1] concerns HeLa-control, HeLa-IG20 and HeLa-DENN-SV cells. Briefly: Etoposide-induced apoptosis, Hoechst chromatin condensation. The protocol:
(§1) FIG. 9: Effects of IG20 and DENN-SV on survival and proliferation of cells treated with etoposide. (A) Cell survival after etoposide treatment. Cells were treated with the indicated doses of etoposide and allowed to grow in culture for 2 weeks and stained with crystal violet. (B) Enumeration of colonies after etoposide treatment. Three different experiments using the indicated doses of etoposide were used to determine the effects of the drug on HeLa-control, HeLa-IG20 and HeLa-DENN-SV cells. P values were <0.05 for all test groups. (C) Etoposide-Induced apoptosis. Cells treated with the indicated doses of etoposide were stained with Hoechst as described in Materials and Methods and evaluated for chromatin condensation under a microscope. P values were <0.05 for all test groups. (D) Cell Division after Etoposide Treatment. Cells were stained with CFDA and then subjected to 5 μM etoposide treatment for 5 days. Cells were then harvested and evaluated by FACS for CFDA staining intensity. Histograms show relative levels of CFDA dye retention. The peak on the left within each histogram represents cells that have undergone cell division, and therefore, partially lost CFDA staining, whereas the peak on the right represents undivided cells that retained maximum CFDA staining.
Cells were stained in situ with 1 μg/ml of Hoechst 33342 (Sigma, St. Louis, Mo.) in DMEM for 10 minutes at 37° C. […]

For assay [2] the test system is unchanged. Briefly: Colony formation after etoposide treatment (crystal violet). The procedure:
as §1
(§2) Cells were plated (10^5 cells/well) the day before treatment into 6 well plates. Cells were treated with etoposide for 24 hours or vinblastine for 1 hour at indicated concentrations. After treatment, cells were washed 3 times with PBS and then replenished with fresh media and incubated at 37° C. Two weeks later, cells were fixed in ice-cold methanol and stained with crystal violet for visualization.

The test system is the same in assay [3]. In words: Cell division after etoposide treatment, CFDA staining. The following applies: 5 μM etoposide for 5 days. The procedure: as §1
1×10^5 Cells/100 mm^2 plate were stained with 2 μM CFDA (Molecular Probes, Eugene, Oreg.) in situ in 5 ml PBS/100 mm^2 for 10 minutes at 37° C. Cells were then washed 3 times and replenished with new media Cells were harvested 5 days later and analyzed by FACS.

For assay [4] the test system is unchanged. Briefly: Vinblastine-induced apoptosis, chromatin condensation by Hoechst staining. The conditions noted are these: 0.05 μM vinblastine, Hoechst 24 hours after treatment. The procedure: (§3) FIG. 8: Effect of IG20 and DENN-SV on Cell Survival and Apoptosis of TransfectedCells after Vinblastine Treatment. (A) Cell survival after Vinblastine treatment. […] (B) Vinblastine-Induced apoptosis. Cells treated with 0.05 μM vinblastine were stained with Hoechst 24 hours after the treatment in order to determine the percentage of cells with condensed chromatin. P values were <0.05 for all test groups.
as §2
Cells were stained in situ with 1 μg/ml of Hoechst 33342 (Sigma, St. Louis, Mo.) in DMEM for 10 minutes at 37° C. Chromatin condensation was then visualized in situ using a Diaphot 200 inverted microscope with an epifluorescence attachment (Nikon, Inc., Melville, N.Y.). 10 different fields were randomly chosen to determine the average number of cells with condensed chromatin (apoptotic) as compared to live cells.

Assay [5] has the same test system. Briefly: Cell survival (crystal violet colonies) after vinblastine treatment. The following applies: dose of 0.05 ∝M, two weeks. The procedure: as §3, §2
In another assay the test system is HeLa cells. In words: TNFα-induced mitochondrial depolarization in Annexin V-separated cells. The text has this: FIG. 7: Endogenous Expression of IG20 variants and Susceptibility To TNF-Induced Apoptosis. (A) Magnetic Separation of Apoptotic and TNFα-resistant Cells. Apoptotic cells were magnetized and physically separated from TNFα-resistant cells using the Annexin V-conjugated microbeads, as described in Materials and Methods. mRNAs were then isolated from apoptotic and TNFα-resistant cells separately and were used in RT-PCR using IG20-specific primers F-1 and B-1. […] In contrast, marked increase in expression of IG20 with no expression of DENN-SV (the anti-apoptotic variant) is seen in apoptotic cells. (B) TNFα-Induced Mitochondrial Depolarization in apoptotic and TNFα-resistant cells. Cells in (A) were then assessed for mitochondrial depolarization. […] Bars represent averages from three wells for each group. The experiment was repeated at least three times and consistent results were obtained.
Cells were plated in 6-well plates at 1.2×10^5 in growth medium. Twenty four hours later, cells were either untreated or treated with 10 ng/ml TNF-α and 10 μg/ml cyclohexamide (CHX) for 6 hours. To assess the effects of TNFα and CHX treatment, cells were either stained with 100 nM tetramethylrhodamine ethyl ester (TMRE) (Molecular Probes, Eugene, Oreg.) for 10 minutes, harvested by trypsinization, washed once with ice-cold PBS and then subjected to FACS analysis, or were stained with either trypan blue and evaluated for viability using a light microscope, or with 1 μg/ml Hoechst 33342 (Sigma) for 10 minutes and evaluated for chromatin condensation in situ using a Diaphot 200 inverted microscope with an epifluorescence attachment (Nikon, Melville, N.Y.).
To separate cells that were undergoing apoptosis, or resistant to apoptosis upon TNFα treatment, the Annexin V microbeads (Miltenyi Biotec, Inc.) were used according to manufacturer's protocol. Annexin V is a phospholipid-binding protein that recognizes phosphatidylserine on the surface of apoptotic cells. […]

Another assay concerns caspase-3. In words: Caspase-3 activation in HeLa IG20 cells. The following applies: 5 hours; TRAIL, or TNF-α and cycloheximide. The procedure: FIG. 15: IG20 Cells show increased specific activation of caspases upon TRAIL treatment A) Initiator caspases—Hela IG20 cells and control cells treated with TRAIL for 1H, were stained, with flourochrome-conjugated peptide inhibitors of specific active caspases as indicated, fixed and analyzed by FACS. B) Caspase-8 cleavage—IG20 HeLa cells and control cells were treated with TRAIL for either 1H or 3H, lysed and immunoblotted for the 10 kDa cleaved product of active caspase-8 using the 6B6 monoclonal antibody. […]
Caspase activation—To assess the general activation of caspases, cells were stained with FITC tagged caspase inhibitor Val-Ala-Asp-flouromethyl ketone Promega, Madison, Wis.) for 10 minutes at 37° C., washed and analyzed by FACS for percentage of FITC positive cells. The initiator caspases were analyzed by using carboxyflourescein labeled peptide flouromethlyketone inhibitors (FAM-peptide-FMK) directed against active caspase-8, 9 and 10 (APOLOGIX caspase detection kit, Cell Tech Inc., Minneapolis, Minn.). […] Cells were collected, washed once, resuspended in Perm/wash buffer and analyzed by FACS for PE positive population. […]

The next assay relates to HeLa IG20 cells. Briefly: TRAIL or TNF-α/cycloheximide induced apoptosis in HeLa IG20 cells (caspase activation, TMRE, Hoechst). The following applies: 5 hours; TRAIL 100 ng/mL, or 10 ng/mL TNF-α and 10 μg/mL cycloheximide. The procedure: FIG. 13: IG20 transfected HeLa cells show increased apoptosis upon TRAIL treatment. HeLa-IG20 and control cells were treated for 5 hours with TRAIL at 100 ng/mL or with 10 ng/mL of TNF-α and 10 μg/mL of Cycloheximide and analyzed for apoptosis. A) Activation of caspases—cells were incubated for 10 minutes with FITC labeled general caspase inhibitor VAD FMK (Val-Ala-Asp-flouromethyl ketone) and analyzed by FACS. Numbers in the histogram indicate percentage of FITC positive cells. B) Mitochondrial Depolarization—Loss of the dye TMRE is indicative of mitochondrial depolarization and the numbers shown in the FACS histograms represent percentage of TMRE negative cells. All the above experiments were done in triplicates and results shown are representative histograms. […] D) Percentage of cells with condensed chromatin was calculated by counting 3 fields containing at least 200 cells each and error bars indicate mean±S.D.
Mitochondrial depolarization and chromatin condensation—2×10^5 HeLa IG20 and Vector control cells were plated into a 12-well culture dish and allowed to grow for 48 hours. […] Cells were assessed for loss of mitochondrial membrane potential by staining with tetramethylrhodamine ethyl ester (100 nm, Molecular Probes, Eugene, Oreg.) for 10 minutes, washed once with ice-cold PBS, collected and subjected to FACS analysis. […]

On to `COc1cc([C@@H]2c3cc4c(cc3[C@@H](O[C@@H]3O[C@@H]5CO[C@@H](C)O[C@H]5[C@H](O)[C@H]3O)[C@H]3COC(=O)[C@H]23)OCO4)cc(OC)c1O` [etoposide], for which the Etoposide-induced apoptosis entry in assay [1] (HeLa-DENN-SV cells) is reported as “noticeable resistance to etoposide-induced apoptosis”; in assay [1] (HeLa-IG20 cells) it was “did not show a marked increase in susceptibility to apoptosis”. The “Colonies formed after etoposide treatment” value in assay [2] (HeLa-DENN-SV cells, 5 μM etoposide) is given as 125 colonies; in assay [2] (HeLa-DENN-SV cells, 20 μM etoposide) it was “approximately 40 colonies”; in assay [2] (HeLa-IG20 cells, 5 μM etoposide, on average), 8 colonies; in assay [2] (HeLa-IG20 cells, 20 μM etoposide), “very few or no colonies”; in assay [2] (HeLa-control cells, 5 μM etoposide), 39 colonies. For the same compound, in assay [2] (HeLa-DENN-SV cells, 30 μM etoposide), the “Growth after etoposide treatment” value is reported as “able to grow”. Further, the figures for the “Cell division as indicated by CFDA staining” value in assay [3] (DENN-SV cells), in assay [3] (HeLa-IG20 cells) and in assay [3] (control cells) were 36%, 9% and 24%, respectively.

Turning to `CC[C@]1(O)C[C@@H]2CN(CCc3c([nH]c4ccccc34)[C@@](C(=O)OC)(c3cc4c(cc3OC)N(C)[C@H]3[C@@](O)(C(=O)OC)[C@H](OC(C)=O)[C@]5(CC)C=CCN6CC[C@]43[C@@H]65)C2)C1` [vinblastine], the “Vinblastine-induced apoptosis as measured by chromatin condensation” value turned out to be 21% in assay [4] (HeLa-DENN-SV cells), 70% in assay [4] (HeLa-IG20 cells) and 46% in assay [4] (HeLa-controls). For the same compound, the “Cell survival (colonies) after vinblastine treatment” value in assay [5] (HeLa-DENN-SV cells) is given as “not significantly affected”; in assay [5] (HeLa-IG20 cells), “only a few HeLa-IG20 colonies detectable”; in assay [5] (HeLa-control cells) it was “intermediary response”.

For the compound TNFα, the “Apoptosis (cells with depolarized mitochondria)” value in the assay on HeLa cells (Annexin V-negative HeLa cells after TNFα and CHX) amounted to 8%; in the assay with HeLa cells (Annexin V-positive HeLa cells after TNFα and CHX), 93%; with HeLa cells (unseparated control HeLa cells), 35%. Also, the “Relative increase in caspase-3 activation, HeLa IG20 relative to control cells” value with caspase-3 is reported as “less than two fold increase”. Besides, the “Increase in cells undergoing apoptosis, HeLa IG20 versus control cells” value with HeLa IG20 cells is “two-fold increase”.

Values taken from patent publication US8722637B2, “Methods and compositions of IG20 and DENN-SV splice variants” (The Board of Trustees of the University of Illinois, priority 2003, dated 2014).
